Laboratory results as given in patent US5571799A, “(2'-5') oligoadenylate analogues useful as inhibitors of host-v5.-graft response” (Basco, Ltd., priority 1994, dated 1996).
Marks after values point to notes of the source that are not given here.

Assays:
[1] = test system: β-lymphocytes (murine splenocytes) stimulated with lipopolysaccharide; assay: In vitro blast-transformation of murine lymphocytes, LPS (β-lymphocyte mitogen), [3H]-thymidine; type: cell-based, mouse (CBA); conditions: for DNA synthesis at [^3 H]-thymidine [incorporated counts/min.]: LPS 0.1 μg/ml
Text: The immune reactions in an organism begins with the division of lymphocytes. In vitro investigation of the lymphocyte blast-transformationreaction under the influence of mitogens makes it possible to use this model system to select chemically synthesized 2'-5'A3 analogues which suppress division of lymphocytes. Using Concanavalin A and lipopolysaccharide as mitogens, the effect of analogues on the division of T- and β-lymphocytes may be investigated.
CBA mice 8-10 weeks old were used for these experiments. A suspension of mouse splenocytes were obtained by gently teasing spleens with forceps. Lymphocytes cultivated in flat-bottomed 96-well plates (Linbro) in RPMI-1640 medium (Flow Lab.) were supplemented with 2 mM 1-glutamine, 10 μg/ml gentamicin, 10^-5 M 2-mercaptoethanol and 10% heat inactivated fetal calf serum (Flow Lab). Cultures were maintained in 5% CO2 at 37° C. One μCi of ^3 H-thymidine (Isotop®) was added to each well 4 hours before the end of the incubation period. Incorporation of ^3 H-thymidine into cellular DNA was determined by liquid scintillation counting using standard techniques. Oligoadenylate was added to the medium at the beginning of culturing to achieve the final concentration.
(Con A being a mitogen for T-lymphocytes and LPS being a mitogen for β-lymphocytes).

interleukin-II = assay: Immune system of monkeys: interleukin-II; type: in vivo, Macaque Rh. monkeys
Protocol: Immunosuppressive activity of the prototype 2'-5'A3 and two analogues (2'-5')A2 Ar-epoxy and (2'-5')A2 A^l-epoxy were investigated in monkeys. The experiments were performed on 4 year-old Macaque Rh. monkeys. The levels of the principal subpopulations of T-lymphocytes, IgA, IgG, IgM and the amount of α- and γ-interferon and interleukin II after administration (2'-5')olygoadenylate and its analogies at the concentration of 50 and 25 μg/kg of the body weight was investigated.
(§1) Serum levels of IgG, IgA, IgM were determined by radial immunodiffusion using antisera against human immunoglobulin A, M, G. The amount of interferon and interleukine-II were determined by the method of Lopez-Botet M. et al., 1982.

IgG, IgA, IgM = assay: Immunoglobulins in monkeys after kidney transplantation; type: in vivo, Macaque Rh. monkeys; conditions: 50 μg/kg IV; for IgA: 2 days pre-op. 0.4; for IgM: 2 days pre-op. 0.8; for IgG: 2 days pre-op. 13
Protocol: as §1
The experiments were performed on 4 year-old Macaque Rh. monkeys. Each cohort consisted of 3 animals. […] The results of the experiments were evaluated clinically: by the presence or absence of urination from the ureterocutaneostoma.
During our experiments we have divided monkeys into two groups, three monkeys to each group. For the first group (2'-5')A2 Ar-epoxy was administered intravenously at concentration of 50 μg/kg two days before the operation and at the second, sixth, and twelfth day after the operation and then every sixth day. […] After transplantation kidney functions were restored within 10 hours.

transplanted kidney = assay: Kidney allotransplantation using chinchilla rabbits; type: in vivo
Protocol: Kidney allotransplantations were performed using chinchilla rabbits of the same sex, weighing 5.0-6.5 kg. In the series of 10 rabbits, allogenic kidneys were transplanted on the neck vessels, rabbit ureter was taken outside for performing ureterocutaneostoma. Anastomosis was performed on the donor kidney vessels according to the "end-into-end" pattern, with the external carotid artery and the jugular vein joined by means of their preliminary cannulation and fixation by the cannulae with the recipient vessels.
The recipient rabbits had combined anesthesia: intravenous introduction of hexenal at a rate of 10 mg per 1.0 kg. body weight was supplemented by local anesthesia with 0.25-0.5% novocaine solution up to 15.0 ml. An intact rabbit served as a kidney donor, whose kidneys were exposed by means of transperitoneal access and perfused with 500 ml of Eurocollins solution, in situ. Simultaneously with the kidney perfusion, kidney vessels and ureters were utilized, the latter being cut at the level of iliac vessels. Having performed perfusion without extracting a kidney from the donor, kidney vessels were cannulated from the aorta and vena cava, the canulae were fixed with separate ligatures and the vessels were released. After this, the kidney was extracted.
The organs were preserved at the temperature of melting ice. Then we proceeded directly to kidney transplantation. The preservation lasted for about 2.5-3.0 hours and thermal ischemia (secondary) duration was 30-40 minutes.
(§2) Immunosuppression was performed by IV injection of (2'-5')A2 Ar-epoxy at a dose of 5 μg per 1.0 kg body weight at 0.1 ml of the physiologic solution daily until the conclusion of the experiment. During the first two weeks of the post-operative period, blood was taken for immunological analysis; BTR with PHA and Concanavalin A were tested.
The results of the experiments were evaluated clinically, by the presence or absence of urination from the ureterocutaneostoma and by the behavior of the experimental animals.

lymphocytes = assay: Lymphocyte blast-transformation reaction in operated rabbits; type: in vivo, chinchilla rabbits
Protocol: as §2
Lymphocyte Blast-Transformation Reaction in Operated Rabbits

With “Adenylyl (2'-5')adenylyl (2'-5')-9-(2,3-anhydro-β-D-ribofuranosyl) adenine disodium salt [(2'-5')A2 Ar-epoxy]” the “DNA synthesis at [^3 H]-thymidine [incorporated counts/min.]” value (“DNA synthesis … [incorporated counts/min.]” for short) ([1]; 5 × 10^-6 M, control 27,133) was 21,464 counts/min, the “inhibition of lymphocyte blast-transformation, in words” value ([1]; LPS, β-lymphocytes) was “weaker effect of the division of β-lymphocytes” and the “DNA synthesis … [incorporated counts/min.]” value ([1]; Table 4, 5 × 10^-6 M, control 10,766) was 7,665 counts/min. The “DNA synthesis … [incorporated counts/min.]” value ([1]; Table 4, 5 × 10^-7 M, control 10,766) was 6,018 counts/min, the “DNA synthesis … [incorporated counts/min.]” value ([1]; Table 4, 5 × 10^-8 M, control 10,766) was 4,767 counts/min and the “DNA synthesis … [incorporated counts/min.]” value ([1]; Table 4, 5 × 10^-9 M, control 10,766) was 7,348 counts/min. For the same substance, the “DNA synthesis … [incorporated counts/min.]” value ([1]; Table 4, 5 × 10^-10 M, control 10,766) was 672 counts/min, the “DNA synthesis … [incorporated counts/min.]” value ([1]; Table 5, 5 × 10^-6 M, control 5,513) was 131 counts/min and the “DNA synthesis … [incorporated counts/min.]” value ([1]; Table 5, 5 × 10^-7 M, control 5,513) was 292 counts/min. For the same substance, the “DNA synthesis … [incorporated counts/min.]” value ([1]; Table 5, 5 × 10^-8 M, control 5,513) was 655 counts/min, the “DNA synthesis … [incorporated counts/min.]” value ([1]; Table 5, 5 × 10^-9 M, control 5,513) was 3,342 counts/min and the “DNA synthesis … [incorporated counts/min.]” value ([1]; Table 5, 5 × 10^-10 M, control 5,513) was 1,213 counts/min. The “effect on interleukin-II production, in words” value (interleukin-II; monkeys, single IV, two weeks) was “suppresses production of interleukin-II”, the Interleukin-II (interleukin-II; single IV 25 μg/kg, day 0 (baseline)) was 4 Units per 10,000 lymphocytes and the Interleukin-II (interleukin-II; single IV 25 μg/kg, day 1) was 2 Units per 10,000 lymphocytes. For the same substance, the Interleukin-II (interleukin-II; single IV 25 μg/kg, day 2) was 2 Units per 10,000 lymphocytes, the Interleukin-II (interleukin-II; single IV 25 μg/kg, day 12) was 2 Units per 10,000 lymphocytes and the Interleukin-II (interleukin-II; single IV 25 μg/kg, day 21) was 4 Units per 10,000 lymphocytes. The Interleukin-II (interleukin-II; single IV 50 μg/kg, day 0 (baseline)) was 8 Units per 10,000 lymphocytes, the Interleukin-II (interleukin-II; single IV 50 μg/kg, day 1) was 4 Units per 10,000 lymphocytes and the Interleukin-II (interleukin-II; single IV 50 μg/kg, day 2) was 4 Units per 10,000 lymphocytes. For the same substance, the Interleukin-II (interleukin-II; single IV 50 μg/kg, day 12) was 4 Units per 10,000 lymphocytes, the Interleukin-II (interleukin-II; single IV 50 μg/kg, day 21) was 4 Units per 10,000 lymphocytes and the IgA (IgG, IgA, IgM; day 5 post-op.) was 2.07 g/L. The IgM (IgG, IgA, IgM; day 5 post-op.) was 0.75 g/L, the IgG (IgG, IgA, IgM; day 5 post-op.) was 12.2 g/L and the IgA (IgG, IgA, IgM; day 8 post-op.) was 2.5 g/L. For the same substance, the IgM (IgG, IgA, IgM; day 8 post-op.) was 0.86 g/L, the IgG (IgG, IgA, IgM; day 8 post-op.) was 12.75 g/L and the “animals with positive results (graft function)” value (transplanted kidney; 10 rabbits, 5 μg/kg daily IV) was “four”. For the same substance, the “rabbits with no graft function in the early postoperative period” value (transplanted kidney; 10 rabbits, probably vesicular thrombosis) was “four”, the “time to death after nephrectomy” value (transplanted kidney; another rabbit) was ≤ 48 h and the “rabbits with generalized viral infection of the respiratory tract” value (transplanted kidney; fatal) was 2 rabbits. For the same substance, the “duration of function of the grafted kidney” value (transplanted kidney; first group, four animals, 5 μg/kg daily IV) was “at least 2 months”, the “death after transplantation (wound suppuration, sepsis)” value (transplanted kidney; fourth group, single rabbit) was “death within the first week after transplantation” and the “graft function after ablation of contralateral kidney, in words” value (transplanted kidney; one rabbit, 1 month after operation) was “the grafted kidney continued functioning”. The “period of normal functioning of the transplanted kidney” value (transplanted kidney; rabbits, IV 5 μg/kg (summary)) was 3 months, the “DNA synthesis by [^3 H]-thymidine incorporated” value (lymphocytes; Con A, Group 1, 2 weeks post-op., pre-op. 12.6) was 1.6 cpm(×10^3) and the “DNA synthesis by [^3 H]-thymidine incorporated” value (lymphocytes; Con A, Group 1, 48 h. post-op., pre-op. 12.6) was 1.6 cpm(×10^3). The “DNA synthesis by [^3 H]-thymidine incorporated” value (lymphocytes; Con A, Group 2, 2 weeks post-op., pre-op. 11.0) was 5.0 cpm(×10^3), the “DNA synthesis by [^3 H]-thymidine incorporated” value (lymphocytes; Con A, Group 2, 48 h. post-op., pre-op. 11.0) was 4.4 cpm(×10^3) and the “DNA synthesis by [^3 H]-thymidine incorporated” value (lymphocytes; PHA 10, Group 1, 2 weeks post-op., pre-op. 6.0) was 1.5 cpm(×10^3). The “DNA synthesis by [^3 H]-thymidine incorporated” value (lymphocytes; PHA 10, Group 1, 48 h. post-op., pre-op. 6.0) was 0.9 cpm(×10^3), the “DNA synthesis by [^3 H]-thymidine incorporated” value (lymphocytes; PHA 10, Group 2, 2 weeks post-op., pre-op. 7.0) was 2.1 cpm(×10^3) and the “DNA synthesis by [^3 H]-thymidine incorporated” value (lymphocytes; PHA 10, Group 2, 48 h. post-op., pre-op. 7.0) was 2.4 cpm(×10^3). For the same substance, the “DNA synthesis by [^3 H]-thymidine incorporated” value (lymphocytes; PHA 20, Group 1, 2 weeks post-op., pre-op. 2.1) was 1.6 cpm(×10^3), the “DNA synthesis by [^3 H]-thymidine incorporated” value (lymphocytes; PHA 20, Group 1, 48 h. post-op., pre-op. 2.1) was 1.2 cpm(×10^3) and the “DNA synthesis by [^3 H]-thymidine incorporated” value (lymphocytes; PHA 20, Group 2, 48 h. post-op., pre-op. 1.4) was 5.5 cpm(×10^3). For the same substance, the “DNA synthesis by [^3 H]-thymidine incorporated” value (lymphocytes; Spontaneous, Group 1, 48 h. post-op., pre-op. 0.648) was 0.306 cpm(×10^3), the “DNA synthesis by [^3 H]-thymidine incorporated” value (lymphocytes; Spontaneous, Group 2, 48 h. post-op., pre-op. 0.597) was 0.274 cpm(×10^3) and the “suppression of lymphocyte blast-transformation stimulated with Con A” value (lymphocytes; post-transplanted rabbits, IV 5 μg/kg) was ~10 fold. The “lymphocyte blast-transformation reaction, in words” value (lymphocytes; two weeks following the operation) was “inhibition of the lymphocyte blast-transformation reaction”.
